The target in experiment [1] is T1, MAP kinase-activated protein kinase 5 (Homo sapiens, UniProt Q8IW41).
T1 sequence (Q8IW41 whole entry): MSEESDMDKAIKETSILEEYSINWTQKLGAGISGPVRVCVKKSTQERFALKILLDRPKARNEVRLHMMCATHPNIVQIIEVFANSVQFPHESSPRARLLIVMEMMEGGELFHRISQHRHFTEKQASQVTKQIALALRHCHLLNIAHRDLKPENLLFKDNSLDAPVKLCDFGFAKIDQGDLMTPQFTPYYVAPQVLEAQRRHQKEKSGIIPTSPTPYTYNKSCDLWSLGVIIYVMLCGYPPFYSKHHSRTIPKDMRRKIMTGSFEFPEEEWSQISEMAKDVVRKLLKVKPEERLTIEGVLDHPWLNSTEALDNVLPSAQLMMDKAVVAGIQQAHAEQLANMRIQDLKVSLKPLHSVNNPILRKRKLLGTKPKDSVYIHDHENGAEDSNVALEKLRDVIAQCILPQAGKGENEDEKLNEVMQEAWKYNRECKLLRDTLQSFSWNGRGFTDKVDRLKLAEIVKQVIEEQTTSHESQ

In experiment [2] the target is T2, Receptor-type tyrosine-protein kinase FLT3 (Homo sapiens, UniProt P36888).
T2 sequence (P36888 whole entry): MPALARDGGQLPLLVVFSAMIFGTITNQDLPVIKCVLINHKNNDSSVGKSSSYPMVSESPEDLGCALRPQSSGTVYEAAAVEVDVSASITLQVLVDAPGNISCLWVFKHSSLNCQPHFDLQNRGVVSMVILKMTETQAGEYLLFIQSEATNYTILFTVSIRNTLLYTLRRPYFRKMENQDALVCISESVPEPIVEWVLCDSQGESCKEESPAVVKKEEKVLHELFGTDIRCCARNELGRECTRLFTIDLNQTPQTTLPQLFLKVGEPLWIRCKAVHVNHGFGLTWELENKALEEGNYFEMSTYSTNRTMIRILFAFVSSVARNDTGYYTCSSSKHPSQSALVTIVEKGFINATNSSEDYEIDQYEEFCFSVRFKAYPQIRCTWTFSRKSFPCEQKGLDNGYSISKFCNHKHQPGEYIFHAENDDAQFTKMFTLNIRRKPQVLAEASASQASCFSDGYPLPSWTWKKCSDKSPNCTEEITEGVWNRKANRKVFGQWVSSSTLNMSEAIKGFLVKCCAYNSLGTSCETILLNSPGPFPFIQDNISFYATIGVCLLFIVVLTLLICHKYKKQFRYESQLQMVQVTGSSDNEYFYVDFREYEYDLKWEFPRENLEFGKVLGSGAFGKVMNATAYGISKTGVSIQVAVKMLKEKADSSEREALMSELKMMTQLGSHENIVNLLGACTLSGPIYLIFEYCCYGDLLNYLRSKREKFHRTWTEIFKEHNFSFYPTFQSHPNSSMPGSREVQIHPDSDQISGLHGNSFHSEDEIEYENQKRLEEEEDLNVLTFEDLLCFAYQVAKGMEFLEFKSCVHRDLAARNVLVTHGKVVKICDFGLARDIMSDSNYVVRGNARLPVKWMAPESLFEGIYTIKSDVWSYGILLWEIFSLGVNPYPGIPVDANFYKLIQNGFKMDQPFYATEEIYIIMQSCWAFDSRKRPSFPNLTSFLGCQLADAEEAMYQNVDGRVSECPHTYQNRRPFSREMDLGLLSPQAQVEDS

For experiment [3], the target named is T3, Serine/threonine-protein kinase ICK (Homo sapiens, UniProt Q9UPZ9).
T3 sequence (Q9UPZ9 whole entry): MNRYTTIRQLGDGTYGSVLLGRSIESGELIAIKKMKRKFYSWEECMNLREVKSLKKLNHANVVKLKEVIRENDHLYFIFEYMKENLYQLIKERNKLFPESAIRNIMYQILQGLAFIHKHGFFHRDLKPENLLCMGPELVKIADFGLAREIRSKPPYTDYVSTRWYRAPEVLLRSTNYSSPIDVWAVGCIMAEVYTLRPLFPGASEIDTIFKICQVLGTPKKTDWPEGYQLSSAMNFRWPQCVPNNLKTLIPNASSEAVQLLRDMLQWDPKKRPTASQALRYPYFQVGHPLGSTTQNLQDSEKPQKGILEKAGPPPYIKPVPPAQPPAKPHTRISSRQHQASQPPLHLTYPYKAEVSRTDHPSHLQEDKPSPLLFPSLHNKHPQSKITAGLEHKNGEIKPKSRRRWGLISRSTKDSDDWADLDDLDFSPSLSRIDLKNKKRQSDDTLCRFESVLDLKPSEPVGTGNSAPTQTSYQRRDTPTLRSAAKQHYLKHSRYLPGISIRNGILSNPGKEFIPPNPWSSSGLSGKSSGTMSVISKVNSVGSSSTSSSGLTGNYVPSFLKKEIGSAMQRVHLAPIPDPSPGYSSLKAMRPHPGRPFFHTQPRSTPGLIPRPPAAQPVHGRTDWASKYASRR

Molecules are shown by their SMILES. Counter-ions that a name gives are not always drawn. Active and inactive are the calls of the source. Rule as the data show it, for most assays here: actives have a measured Kd and inactives only a lower limit.

A word on the Kd: it is the equilibrium constant for the complex coming apart.
Also: in the data inactive means no Kd found up to 30 µM.

With `C[C@@H](Oc1cc(C(=O)Nc2ccc(C(=O)N3CCN(C)CC3)cc2)nnc1N)c1c(Cl)ccc(F)c1Cl`, the Kd in experiment [1] and in experiment [2] was > 30 µM (inactive) throughout.
On to `C[C@H]1CNCCCN1S(=O)(=O)c1cccc2cncc(F)c12`, for which the Kd in experiment [3] and in experiment [2] was > 30 µM (inactive) in each case.
On to `CC(=O)c1cnc2ccc(-c3cc(Cl)c(O)c(Cl)c3)nc2c1N[C@H]1CC[C@H](CN(C)C)CC1`, for which the values for the Kd in experiment [1], in experiment [3] and in experiment [2] were 0.272 µM (active), > 30 µM (inactive) and > 30 µM (inactive), respectively.
Consider `CCNC(=O)C#Cc1ccc2c(c1)NC(=O)/C2=C(\Nc1ccc(CN(C)C)cc1)c1ccccc1`, for which the Kd in experiment [2] was 0.148 µM (active).
In the case of `C=CC(=O)N1CCC[C@H](n2c(=O)n(-c3ccc(Oc4ccccc4)cc3)c3c(N)ncnc32)C1`, the Kd in experiment [1], in experiment [3] and in experiment [2] was > 30 µM (inactive) in each case.
As for `Cc1nc2cc(-c3nn(C(C)C)c4ncnc(N)c34)ccc2o1`, the values for the Kd in experiment [1], in experiment [3] and in experiment [2] were > 30 µM (inactive), > 30 µM (inactive) and 7.04 µM (active), respectively.
For the compound `COCc1c(-c2ccc(NC(=O)Nc3cc(C(F)(F)F)ccc3F)c(F)c2)c2c(N)ncnn2c1CN1CCOCC1`, the figures for the Kd in experiment [1], in experiment [3] and in experiment [2] were > 30 µM (inactive), > 30 µM (inactive) and 0.465 µM (active), respectively.
For the compound `Nc1ncnc2c1c(-c1cccc(OCc3ccccc3)c1)cn2[C@H]1C[C@@H](CN2CCC2)C1` [AEW-541], the Kd in experiment [1], in experiment [3] and in experiment [2] was > 30 µM (inactive) in each case.
Regarding `COc1cc(Nc2ncc3c(n2)-c2ccc(Cl)cc2C(c2c(F)cccc2OC)=NC3)ccc1C(=O)O` [ALISERTIB], the Kd in experiment [3] is > 30 µM (inactive).
As to `Cc1nc(NC(=O)N2CCC[C@H]2C(N)=O)sc1-c1ccnc(C(C)(C)C(F)(F)F)c1` [ALPELISIB], the Kd in experiment [1], in experiment [3] and in experiment [2] was > 30 µM (inactive) in each case.
With `Cc1csc(-c2nnc(Nc3ccc(Oc4ncccc4-c4ccnc(N)n4)cc3)c3ccccc23)c1` [AMG-900], the Kd in experiment [1], in experiment [3] and in experiment [2] was > 30 µM (inactive) each time.
`O=C(Nc1c[nH]nc1-c1nc2cc(CN3CCOCC3)ccc2[nH]1)NC1CC1` [AT-9283]: the dissociation constant Kd in experiment [1] is 0.589 µM (active); in experiment [3] it was > 30 µM (inactive).
Consider `C=CC(=O)Nc1cc2c(Nc3ccc(F)c(Cl)c3)ncnc2cc1C#CC(C)(C)N1CCN(C)CC1` [AV-412 FREE BASE], for which the Kd in experiment [1], in experiment [3] and in experiment [2] was > 30 µM (inactive) in each case.
For the compound `COc1cc([C@@H]2c3cc4c(cc3[C@H](O)[C@H]3COC(=O)[C@@H]23)OCO4)cc(OC)c1OC` [AXL-1717], the Kd in experiment [1], in experiment [3] and in experiment [2] was > 30 µM (inactive) in each case.
Take `NC(=O)Nc1cc(-c2cccc(F)c2)sc1C(=O)N[C@H]1CCCNC1` [AZD-7762]: the Kd in experiment [1], in experiment [3] and in experiment [2] was > 30 µM (inactive) each time.
With `Cc1cc(C(=O)NOCCO)c(Nc2ccc(I)cc2F)n(C)c1=O` [AZD-8330], the Kd in experiment [1], in experiment [3] and in experiment [2] was > 30 µM (inactive) each time.
Take `Cn1cnc2c(F)c(Nc3ccc(Br)cc3F)c(C(=O)NOCCO)cc21` [BINIMETINIB]: the Kd in experiment [1], in experiment [3] and in experiment [2] was > 30 µM (inactive) throughout.
On to `CCn1c(C(=O)N(C2CC2)C2CC2)cc2c3c(ncn3C)c(Nc3cc(C)n(C)n3)nc21` [BMS-911543], for which the Kd in experiment [3] and in experiment [2] was > 30 µM (inactive) in each case.
For `COc1cc2ncnc(Oc3cccc(NC(=O)Nc4cc(C(C)(C)C(F)(F)F)on4)c3)c2cc1OC` [CEP-32496], the Kd in experiment [1] was > 30 µM (inactive); in experiment [3], > 30 µM (inactive); in experiment [2] it was 0.55 µM (active).
Take `Cc1cc(Nc2ncc(Cl)c(Nc3ccccc3S(=O)(=O)C(C)C)n2)c(OC(C)C)cc1C1CCNCC1` [CERITINIB]: the Kd in experiment [1] was > 30 µM (inactive); in experiment [3] it was > 30 µM (inactive); in experiment [2] it was 4.26 µM (active).
Take `COc1c(OCCCN2CCOCC2)ccc2c1N=C(NC(=O)c1cnc(N)nc1)N1CCN=C21` [COPANLISIB]: the Kd in experiment [1], in experiment [3] and in experiment [2] was > 30 µM (inactive) throughout.
Consider `COCC(=O)NC/C=C/c1ccc2ncnc(Nc3ccc(Oc4ccc(C)nc4)c(C)c3)c2c1` [CP-724714], for which the Kd in experiment [1], in experiment [3] and in experiment [2] was > 30 µM (inactive) throughout.
`C#Cc1cccc(Nc2ncnc3cc(OC)c(OCCCCCCC(=O)NO)cc23)c1` [CUDC-101]: the Kd in experiment [1], in experiment [3] and in experiment [2] was > 30 µM (inactive) each time.
`CCS(=O)(=O)N1CCN(c2ccc(Nc3ncc(C(N)=O)c(NC4CC4)n3)cc2)CC1` [Cerdulatinib Hydrochloride]: the Kd is > 30 µM (inactive) in experiment [1], > 30 µM (inactive) in experiment [3] and 1.5 µM (active) in experiment [2].
Regarding `CC(C)(C)c1nc(-c2cccc(NS(=O)(=O)c3c(F)cccc3F)c2F)c(-c2ccnc(N)n2)s1` [DABRAFENIB], the Kd in experiment [3] is > 30 µM (inactive).
On to `Cc1nc2cc(-n3ncc(C(=O)c4cc5ccccc5[nH]4)c3N)ccc2[nH]1` [FGFR INHIBITOR DEBIO 1347], for which the Kd in experiment [1] and in experiment [2] was > 30 µM (inactive) each time.
For `CCn1cc(-c2ccnc3[nH]c(-c4cccc(CN(C)C)c4)cc23)c(-c2ccc(NC(=O)N(C)C)cc2)n1` [GSK-1070916], the Kd in experiment [1] and in experiment [3] was > 30 µM (inactive) each time.
Take `O=C(Nc1cc(C(F)(F)F)cc(C(F)(F)F)c1)c1cc(Cl)ccc1O` [IMD-0354]: the Kd in experiment [1] and in experiment [3] was > 30 µM (inactive) each time.
In the case of `CN(C[C@@H]1COCCO1)S(=O)(=O)Nc1ccc2ccc3ncc(-c4cnn(C)c4)cc3c(=O)c2c1` [MK-2461], the Kd in experiment [1] and in experiment [2] was > 30 µM (inactive) throughout.
On to `NC(=O)c1c(OCc2c(F)cc(Br)cc2F)nsc1NC(=O)NCCCCN1CCCC1` [OSI-632], for which, in experiment [3], the Kd was > 30 µM (inactive).
On the same count and under the same terms, the value for `CC(=O)NCC(=O)N1[C@@H]2CC[C@H]1c1ccc(Nc3ncc(C(F)(F)F)c(NC4CCC4)n3)cc12` [PF-03814735] was > 30 µM (inactive).
Take `CNC(=O)c1cc(Oc2ccc(NC(=O)Nc3cc(C(C)(C)C)nn3-c3ccc4ncccc4c3)c(F)c2)ccn1` [REBASTINIB]: the Kd in experiment [1] and in experiment [3] was > 30 µM (inactive) each time.
As to `Cn1ncc(Cl)c1-c1cc(C(=O)N[C@H](CN)Cc2ccc(F)c(F)c2)oc1Cl` [UPROSERTIB], the Kd in experiment [1] and in experiment [2] was > 30 µM (inactive) each time.

Source of the values: ChEMBL document CHEMBL3991601, “The target landscape of clinical kinase drugs” (Science, 2017).
